ChEMBL document CHEMBL1147354, “Further bioactive cembranolide diterpenes from the gorgonian Eunicea succinea” (J Nat Prod, 1993)
Converted amounts (≈) assume the structure as drawn.

Assays:
Format in all cases: functional, cell-based
[1] = system: HCT-116; test: Cytotoxicity against human HCT116 cells
[2] = system: MCF7; test: Cytotoxicity against human MCF7 cells
[3] = system: CCRF-CEM; test: Cytotoxicity against human CCRF-CEM cells
[4] = system: SK-MEL-5; test: Cytotoxicity against human SK-MEL-5 cells

Structure (SMILES) | IC50 [1] [µg/mL] | IC50 [2] [µg/mL] | IC50 [3] [µg/mL] | IC50 [4] [µg/mL]
C=C1C(=O)O[C@H]2[C@H](OC(C)=O)[C@H](C)CCC/C(C)=C/CC[C@@]3(C)O[C@@H]3C[C@@H]12 | 8 (≈ 21.2 µM) | 8 (≈ 21.2 µM) | ≥ 50 | 
C=C1C(=O)OC2C(=O)[C@H](C)CCC/C(C)=C/CC[C@@]3(C)O[C@@H]3C[C@@H]12 (some centres undefined) [SUCCINOLIDE] | 2 (≈ 6.02 µM) | 3 (≈ 9.02 µM) | ≥ 50 | 
C=C1C(=O)O[C@H]2[C@@H](OC(C)=O)[C@H](C)CCC/C(C)=C/CC[C@@]3(C)O[C@@H]3C[C@@H]12 | 0.4 (≈ 1.06 µM) | 6 (≈ 15.9 µM) |  | 5 (≈ 13.3 µM)
